Legend:
GST-Bcl-XL = GST-Bcl-XL (Homo sapiens, UniProt Q07817); experiment: TR-FRET binding assay, GST-Bcl-XL with F-Bak peptide probe; conditions: TR-FRET Binding Affinity
How it was run: (§1)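 Displacement of a fluorescein-labelled Bak peptide from the GST-tagged protein was followed by time-resolved FRET with a terbium anti-GST donor after 3 h incubation at room temperature. Inhibition constants were calculated with Wang's equation.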

FL5.12/Bcl-2 cells = experiment: FL5.12/Bcl-2 cell viability assay under IL-3 withdrawal (CellTitre Glo); assay type: cell-based, murine; conditions: Mus musculus, IL-3 withdrawn 48 hrs, then 24 hrs with compound
Text: FL5.12 is an IL-3 dependent prolymphocytic murine cell line that undergoes apoptosis upon IL-3 withdrawal as a result of the upregulation of pro-apoptotic Bcl-2 proteins such as Bim and Puma. Stable overexpression of anti-apoptotic Bcl-2 protein (FL5.12/Bcl-2) protects against apoptosis induced by IL-3 withdrawal by sequestration of Bim and Puma. […] The ability of compounds to kill FL5.12/Bcl-2 cells upon IL-3 withdrawal is a direct measure of the compounds' ability to inhibit anti-apoptotic Bcl-2 protein function.
Wild type FL5.12/Bcl-2 overexpressing stable transfectants were cultured in RPMI-1640 supplemented with 2 mM L-glutamine, 10% FBS, 1 mM sodium pyruvate, 2 mM HEPES, 1% penicillin/streptomycin (Invitrogen), 57 μM β-ME, and 10% WEHI-3B conditioned medium (source of IL-3) and maintained at 37° C. containing 5% CO2. 1×10^6 cells/ml were washed 1×PBS and resuspended in medium not supplemented with 10% WEHI-3B for 48 hrs prior to cytotoxicity assays. Cells were then treated for an additional 24 hrs in the presence of various concentrations of the indicated compounds. Cell viability was assessed by CellTitre Glo assay (Promega Corp.) according to the manufacturer's recommendations.

GST-Bcl-2 = GST-Bcl-2 (Homo sapiens, UniProt P10415); experiment: TR-FRET binding assay, GST-Bcl-2 with F-Bak peptide probe; conditions: for Ki: TR-FRET Binding Affinity; for Binding selectivity ratio (Bcl-XL Ki/Bcl-2 Ki): TR-FRET, Bcl-XL Ki divided by Bcl-2 Ki
How it was run: as §1

[1] = GST-Bcl-XL, F-Bak peptide probe

Sequence of GST-Bcl-XL (Q07817 whole entry): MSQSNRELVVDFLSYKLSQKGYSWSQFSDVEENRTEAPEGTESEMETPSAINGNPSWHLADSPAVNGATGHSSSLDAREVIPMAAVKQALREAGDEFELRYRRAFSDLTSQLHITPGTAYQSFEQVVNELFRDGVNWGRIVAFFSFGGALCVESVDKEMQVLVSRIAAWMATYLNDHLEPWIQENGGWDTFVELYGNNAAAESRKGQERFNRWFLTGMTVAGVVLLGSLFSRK
Sequence of GST-Bcl-2 (P10415 whole entry): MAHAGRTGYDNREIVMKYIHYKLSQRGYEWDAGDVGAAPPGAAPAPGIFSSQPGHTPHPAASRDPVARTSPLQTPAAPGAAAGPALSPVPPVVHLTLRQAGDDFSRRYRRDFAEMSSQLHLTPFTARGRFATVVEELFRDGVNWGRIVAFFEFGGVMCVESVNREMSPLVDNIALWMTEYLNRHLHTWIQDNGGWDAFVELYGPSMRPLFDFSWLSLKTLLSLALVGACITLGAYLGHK

Compound | Ki (GST-Bcl-XL; [1]) [nM] | EC50 (FL5.12/Bcl-2 cells) [nM] | Ki (GST-Bcl-2) [nM] | Binding selectivity ratio (Bcl-XL Ki/Bcl-2 Ki) (GST-Bcl-2) | Ki (GST-Bcl-XL) [nM]
CC1(C)CCC(CN2CCN(c3ccc(C(=O)NS(=O)(=O)c4ccc(N[C@H]5CC[C@H](N6CCOCC6)CC5)c([N+](=O)[O-])c4)c(Oc4ccc5[nH]ccc5c4)c3)CC2)=C(c2ccc(Cl)cc2)C1 [Example 178, Trans-4-(4-{[2-(4-chlorophenyl)-4,4-dimethylcyclohex-1-en-1-yl]methyl}piperazin-1-yl)-2-(1H-indol-5-yloxy)-N-({4-[(4-morpholin-4-ylcyclohexyl)amino]-3-nitrophenyl}sulfonyl)benzamide] | > 660 | 18.6 | – | – | –
COCCNc1ccc(S(=O)(=O)NC(=O)c2ccc(N3CCN(CC4=C(c5ccc(Cl)cc5)CC(C)(C)CC4)CC3)cc2Oc2ccc3[nH]ccc3c2)cc1[N+](=O)[O-] [Example 179, 4-(4-{[2-(4-chlorophenyl)-4,4-dimethylcyclohex-1-en-1-yl]methyl}piperazin-1-yl)-2-(1H-indol-5-yloxy)-N-({4-[(2-methoxyethyl)amino]-3-nitrophenyl}sulfonyl)benzamide] | > 660 | 23.5 | – | – | –
CC1(C)CCC(CN2CCN(c3ccc(C(=O)NS(=O)(=O)c4ccc(NC[C@@H]5CCCOC5)c([N+](=O)[O-])c4)c(Oc4ccc5[nH]ccc5c4)c3)CC2)=C(c2ccc(Cl)cc2)C1 [Example 180, 4-(4-{[2-(4-chlorophenyl)-4,4-dimethylcyclohex-1-en-1-yl]methyl}piperazin-1-yl)-2-(1H-indol-5-yloxy)-N-[(3-nitro-4-{[(3S)-tetrahydro-2H-pyran-3-ylmethyl]amino}phenyl)sulfonyl]benzamide] | > 660 | 20.5 | – | – | –
CC1(C)CCC(CN2CCN(c3ccc(C(=O)NS(=O)(=O)c4ccc(NC[C@H]5CCCOC5)c([N+](=O)[O-])c4)c(Oc4ccc5[nH]ccc5c4)c3)CC2)=C(c2ccc(Cl)cc2)C1 [Example 181, 4-(4-{[2-(4-chlorophenyl)-4,4-dimethylcyclohex-1-en-1-yl]methyl}piperazin-1-yl)-2-(1H-indol-5-yloxy)-N-[(3-nitro-4-{[(3R)-tetrahydro-2H-pyran-3-ylmethyl]amino}phenyl)sulfonyl]benzamide] | > 660 | 33.5 | – | – | –
CC1(C)CCC(CN2CCN(c3ccc(C(=O)NS(=O)(=O)c4ccc(NCC5CCCOC5)c([N+](=O)[O-])c4)c(Oc4ccc5[nH]ccc5c4)c3)CC2)=C(c2ccc(Cl)cc2)C1 (stereo not drawn) [Example 261, 4-(4-{[2-(4-chlorophenyl)-4,4-dimethylcyclohex-1-en-1-yl]methyl}piperazin-1-yl)-2-(1H-indol-5-yloxy)-N-({3-nitro-4-[(tetrahydro-2H-pyran-3-ylmethyl)amino]phenyl}sulfonyl)benzamide] | > 660 | 17 | – | – | –
CC1(C)CCC(CN2CCN(c3ccc(C(=O)NS(=O)(=O)c4ccc(OCC5COCCO5)c([N+](=O)[O-])c4)c(Oc4ccc5[nH]ccc5c4)c3)CC2)=C(c2ccc(Cl)cc2)C1 (stereo not drawn) [Example 297, 4-(4-{[2-(4-chlorophenyl)-4,4-dimethylcyclohex-1-en-1-yl]methyl}piperazin-1-yl)-N-{[4-(1,4-dioxan-2-ylmethoxy)-3-nitrophenyl]sulfonyl}-2-(1H-indol-5-yloxy)benzamide] | 283 | 13.2 | – | – | –
CC1(C)CCC(CN2CCN(c3ccc(C(=O)NS(=O)(=O)c4ccc(NCCOC(F)(F)F)c([N+](=O)[O-])c4)c(Oc4ccc5[nH]ccc5c4)c3)CC2)=C(c2ccc(Cl)cc2)C1 [Example 300, 4-(4-{[2-(4-chlorophenyl)-4,4-dimethylcyclohex-1-en-1-yl]methyl}piperazin-1-yl)-2-(1H-indol-5-yloxy)-N-[(3-nitro-4-{[2-(trifluoromethoxy)ethyl]amino}phenyl)sulfonyl]benzamide] | > 660 | 62.1 | – | – | –
CC1(C)CCC(CN2CCN(c3ccc(C(=O)NS(=O)(=O)c4ccc(NCC5CCOCC5)c(S(=O)(=O)C(F)(F)F)c4)c(Oc4ccc5[nH]ccc5c4)c3)CC2)=C(c2ccc(Cl)cc2)C1 [Example 304, 4-(4-{[2-(4-chlorophenyl)-4,4-dimethylcyclohex-1-en-1-yl]methyl}piperazin-1-yl)-2-(1H-indol-5-yloxy)-N-({4-[(tetrahydro-2H-pyran-4-ylmethyl)amino]-3-[(trifluoromethyl)sulfonyl]phenyl}sulfonyl)benzamide] | > 660 | 415 | – | – | –
COCCNc1ccc(S(=O)(=O)NC(=O)c2ccc(N3CCN(CC4=C(c5ccc(Cl)cc5)CC(C)(C)CC4)CC3)cc2Oc2ccc3[nH]ccc3c2)cc1S(=O)(=O)C(F)(F)F [Example 315, 4-(4-{[2-(4-chlorophenyl)-4,4-dimethylcyclohex-1-en-1-yl]methyl}piperazin-1-yl)-2-(1H-indol-5-yloxy)-N-({4-[(2-methoxyethyl)amino]-3-[(trifluoromethyl)sulfonyl]phenyl}sulfonyl)benzamide] | > 660 | > 500 | – | – | –
O=C(NS(=O)(=O)c1ccc(NCC2CCOCC2)c([N+](=O)[O-])c1)c1ccc(N2CCN(Cc3ccccc3N3CC4CCC(CC4)C3)CC2)cc1Oc1ccccc1 [Example 474, 4-{4-[2-(3-azabicyclo[3.2.2]non-3-yl)benzyl]piperazin-1-yl}-N-({3-nitro-4-[(tetrahydro-2H-pyran-4-ylmethyl)amino]phenyl}sulfonyl)-2-phenoxybenzamide] | – | 93.4 | 8.1 | – | –
O=C(NS(=O)(=O)c1ccc(NCC2CCOCC2)c(S(=O)(=O)C(F)(F)F)c1)c1ccc(N2CCN(Cc3ccccc3N3CC4CCC(CC4)C3)CC2)cc1Oc1ccccc1 [Example 475, 4-{4-[2-(3-azabicyclo[3.2.2]non-3-yl)benzyl]piperazin-1-yl}-2-phenoxy-N-({4-[(tetrahydro-2H-pyran-4-ylmethyl)amino]-3-[(trifluoromethyl)sulfonyl]phenyl}sulfonyl)benzamide] | – | 223 | – | – | –
O=C(NS(=O)(=O)c1ccc(NCCCN2CCOCC2)c([N+](=O)[O-])c1)c1ccc(N2CCN(Cc3ccccc3N3CC4CCC(CC4)C3)CC2)cc1Oc1ccccc1 [Example 477, 4-{4-[2-(3-azabicyclo[3.2.2]non-3-yl)benzyl]piperazin-1-yl}-N-({4-[(3-morpholin-4-ylpropyl)amino]-3-nitrophenyl}sulfonyl)-2-phenoxybenzamide] | – | > 1670 | 8.5 | – | –
O=C(NS(=O)(=O)c1ccc(NCC2CCOCC2)c([N+](=O)[O-])c1)c1ccc(N2CCN(Cc3ccccc3C3=C[C@H]4C[C@@H]3C3CCCC34)CC2)cc1Oc1ccccc1 (stereo partly drawn) [Example 478, 4-(4-{2-[(4R,7S)-2,3,3a,4,7,7a-hexahydro-1H-4,7-methanoinden-5-yl]benzyl}piperazin-1-yl)-N-({3-nitro-4-[(tetrahydro-2H-pyran-4-ylmethyl)amino]phenyl}sulfonyl)-2-phenoxybenzamide] | – | > 5000 | – | – | –
CC1(C)CCC(CN2CCN(c3ccc(C(=O)NS(=O)(=O)c4ccc(OCC5CCC(C)(O)CC5)c([N+](=O)[O-])c4)c(Oc4cccc5[nH]ncc45)c3)CC2)=C(c2ccc(Cl)cc2)C1 (stereo not drawn) [Example 533, 4-(4-{[2-(4-chlorophenyl)-4,4-dimethylcyclohex-1-en-1-yl]methyl}piperazin-1-yl)-N-({4-[(trans-4-hydroxy-4-methylcyclohexyl)methoxy]-3-nitrophenyl}sulfonyl)-2-(H-indazol-4-yloxy)benzamide] | – | – | < 0.01 | >1044.3 | 10.4
CC1(C)CCC(CN2CCN(c3ccc(C(=O)NS(=O)(=O)c4ccc(OCC5(F)CCN(C6COC6)CC5)c(C#N)c4)c(Oc4cccc5[nH]ncc45)c3)CC2)=C(c2ccc(Cl)cc2)C1 [Example 534, 4-(4-{[2-(4-chlorophenyl)-4,4-dimethylcyclohex-1-en-1-yl]methyl}piperazin-1-yl)-N-[(3-cyano-4-{[4-fluoro-1-(oxetan-3-yl)piperidin-4-yl]methoxy}phenyl)sulfonyl]-2-(1H-indazol-4-yloxy)benzamide] | – | – | < 0.01 | >4603.9 | 46
CC1(C)CCC(CN2CCN(c3ccc(C(=O)NS(=O)(=O)c4ccc(OCC5CCC6(CC5)COC6)c([N+](=O)[O-])c4)c(Oc4cccc5[nH]ncc45)c3)CC2)=C(c2ccc(Cl)cc2)C1 [Example 535, 4-(4-{[2-(4-chlorophenyl)-4,4-dimethylcyclohex-1-en-1-yl]methyl}piperazin-1-yl)-2-(1H-indazol-4-yloxy)-N-{[3-nitro-4-(2-oxaspiro[3.5]non-7-ylmethoxy)phenyl]sulfonyl}benzamide] | – | – | < 0.01 | >250.5 | 2.5
CC1(C)CCC(CN2CCN(c3ccc(C(=O)NS(=O)(=O)c4cnc(OCC5CCc6nccn6C5)c(Cl)c4)c(Oc4cccc5[nH]ncc45)c3)CC2)=C(c2ccc(Cl)cc2)C1 (stereo not drawn) [Example 536, 4-(4-{[2-(4-chlorophenyl)-4,4-dimethylcyclohex-1-en-1-yl]methyl}piperazin-1-yl)-N-{[5-chloro-6-(5,6,7,8-tetrahydroimidazo[1,2-a]pyridin-6-ylmethoxy)pyridin-3-yl]sulfonyl}-2-(1H-indazol-4-yloxy)benzamide] | – | – | 0.025 | 886.1 | 22.2

Source: patent publication US9073855B2, “BCL-2 selective apoptosis-inducing agents for the treatment of cancer and immune diseases” (AbbVie Inc., priority 2008, dated 2015)
